Reference: US20050032873A1, “3-Amino chroman and 2-amino tetralin derivatives” (Wyeth, priority 2003, published 2005)
Like-named read-outs stand apart in the source and are kept apart here.

Key:
5-HT1A receptor = target: T1, 5-HT1A receptor (Homo sapiens, UniProt P08908); experiment: 5-HT1A receptor affinity: displacement of [3H] 8-OH-DPAT; assay type: binding; design: expressed in transfected cells; conditions: for inhibition at 1 µM: read-out: 5-HT1A Receptor Affinity, % @ 1 μM; for Ki: displacement of [3H] 8-OH-DPAT, CHO cells stably transfected with human 5-HT1A receptors, read-out: 5-HT1A Receptor Affinity Ki
T1 sequence (P08908 1-422): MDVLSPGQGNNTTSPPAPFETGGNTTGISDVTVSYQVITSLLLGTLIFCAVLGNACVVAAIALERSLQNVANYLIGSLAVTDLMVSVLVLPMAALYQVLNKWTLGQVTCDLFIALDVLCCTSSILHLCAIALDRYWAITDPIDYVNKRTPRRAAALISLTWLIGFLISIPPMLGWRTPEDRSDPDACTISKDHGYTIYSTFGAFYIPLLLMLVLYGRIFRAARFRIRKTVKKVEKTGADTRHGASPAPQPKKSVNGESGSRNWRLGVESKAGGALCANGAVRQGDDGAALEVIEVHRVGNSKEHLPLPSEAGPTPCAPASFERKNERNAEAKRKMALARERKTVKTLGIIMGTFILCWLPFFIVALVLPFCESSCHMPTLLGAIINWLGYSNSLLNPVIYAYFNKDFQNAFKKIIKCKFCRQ

serotonin transporter = target: T2, serotonin transporter (Rattus norvegicus, UniProt P31652); experiment: 5-HT transporter affinity: displacement of 3H-paroxetine from male rat cortical membranes; assay type: binding; conditions: displacement of 3H-paroxetine; male rat cortical membranes; read-out: 5-HT Transporter Affinity Ki
T2 construct: displace ^3H-paroxetine from male rat cortical membranes; from tissue; host or cells: male rat cortical membranes
T2 sequence (P31652 whole entry): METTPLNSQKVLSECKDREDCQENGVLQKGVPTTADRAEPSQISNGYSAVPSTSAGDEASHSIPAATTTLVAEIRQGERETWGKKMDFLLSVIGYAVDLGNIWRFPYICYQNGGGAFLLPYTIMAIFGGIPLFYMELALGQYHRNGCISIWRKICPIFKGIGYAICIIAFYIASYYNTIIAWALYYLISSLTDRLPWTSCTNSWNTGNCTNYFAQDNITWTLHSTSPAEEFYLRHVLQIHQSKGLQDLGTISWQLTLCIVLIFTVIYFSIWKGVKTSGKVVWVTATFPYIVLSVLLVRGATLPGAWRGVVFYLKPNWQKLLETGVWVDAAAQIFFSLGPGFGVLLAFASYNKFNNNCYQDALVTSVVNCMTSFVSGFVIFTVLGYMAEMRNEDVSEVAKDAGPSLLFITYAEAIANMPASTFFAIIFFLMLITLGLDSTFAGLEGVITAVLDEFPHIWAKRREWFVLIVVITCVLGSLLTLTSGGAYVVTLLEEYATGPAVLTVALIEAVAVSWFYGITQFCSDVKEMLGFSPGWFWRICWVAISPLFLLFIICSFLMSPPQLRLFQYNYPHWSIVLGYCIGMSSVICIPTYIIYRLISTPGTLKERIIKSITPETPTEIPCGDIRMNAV

[1] = target: T3, cloned human 5-HT1A receptors (Homo sapiens, UniProt P08908); experiment: 35S-GTPγS binding assay, 5-HT1A function; assay type: biochemical; conditions: for IC50: antagonist potency, reversal of 8-OH-DPAT, read-out: 5-HT1A Function GTPγS IC50
T3 construct: expressed in transfected cells
T3 sequence (P08908 1-422): T1 sequence (P08908 1-422)

[2] = maximum inhibitory effect, in brackets after IC50, read-out: 5-HT1A Function GTPγS (Imax)
[3] = maximum inhibitory effect, in brackets after IC50

inhibition at 1 µM (5-HT1A receptor) [%] | Ki (serotonin transporter) [nM] | IC50 [1] [nM] | Emax [1, 2] [%] | Ki (5-HT1A receptor) [nM] | 5-HT1A Function GTPγS (Imax) [1, 3] [%] | EC50 ([1]; agonist potency) [nM] | Emax ([1]; maximum stimulatory effect, in brackets after EC50, read-out: 5-HT1A Function GTPγS (Emax)) [%] | Structure (SMILES)
46 | 3.07 | 115 | 44.6 | – | – | – | – | COc1cccc2c1CC(N[C@H]1CC[C@H](c3c[nH]c4ccc(F)cc43)CC1)CO2 (relative stereo) [Compound 181b, trans-N-[4-(5-fluoro-1H-indol-3-yl)cyclohexyl]-5-methoxychroman-3-amine]
– | 65 | 235 | – | 6.35 | 100 | – | – | CC(CCc1c[nH]c2c(F)cc(F)cc12)N(CC1CC1)C1COc2c(F)ccc(C(N)=O)c2C1 (single isomer, unassigned) [Compound 154a, 3-{(cyclopropylmethyl)[3-(5,7-difluoro-1H-indol-3-yl)-1-methylpropyl]amino}-8-fluorochromane-5-carboxamide]
2 | 4.81 | 7070 | – | – | 71 | – | – | CC(CCc1c[nH]c2c(F)cc(F)cc12)N(CC1CC1)C1COc2c(F)ccc(C(N)=O)c2C1 (single isomer, unassigned) [Compound 154d, 3-{(cyclopropylmethyl)[3-(5,7-difluoro-1H-indol-3-yl)-1-methylpropyl]amino}-8-fluorochromane-5-carboxamide]
48 | 33.2 | 9030 | 100 | – | – | – | – | NC(=O)c1ccc(F)c2c1C[C@@H](NCC1CCc3c([nH]c4ccc(F)cc34)C1)CO2 (single isomer, unassigned; (+)) [Compound 179a]
49 | 855 | 8000 | – | – | 50 | – | – | NC(=O)c1ccc(F)c2c1CC(N(CC1CCc3[nH]c4ccc(F)cc4c3C1)C1CCC1)CO2 (single isomer, unassigned; (-)) [Compound 174a, (−)-3-{cyclobutyl[(6-fluoro-2,3,4,9-tetrahydro-1H-carbazol-3-yl)methyl]amino}-8-fluorochromane-5-carboxamide]
30 | 18.9 | 4840 | 87 | – | – | – | – | CC(C1CC1)N(CCCc1c[nH]c2ccc(F)cc12)C1COc2c(F)ccc(C(N)=O)c2C1 (centres unmarked) [Compound 6, 3-{(1-cyclopropylethyl)[3-(5-fluoro-1H-indol-3-yl)propyl]amino}-8-fluorochromane-5-carboxamide]
– | 35.6 | – | – | 202 | – | 8020 | 49 | COC(=O)c1ccc(F)c2c1CC(N(CCCCc1c[nH]c3ccc(F)cc13)C1CCC1)CO2 (centres unmarked) [Compound 58, Methyl 3-{cyclobutyl[4-(5-fluoro-1H-indol-3-yl)butyl]amino}-8-fluorochromane-5-carboxylate]
0 | 46.6 | 1960 | 25 | – | – | – | – | COC(=O)c1ccc(F)c2c1C[C@H](N(CCCCc1c[nH]c3ccc(F)cc13)C1CCC1)CO2 [Compound 58a, Methyl (3S)-3-{cyclobutyl[4-(5-fluoro-1H-indol-3-yl)butyl]amino}-8-fluorochromane-5-carboxylate]
– | 29.2 | 626 | 94 | 138 | – | – | – | COC(=O)c1ccc(F)c2c1C[C@@H](N(CCCCc1c[nH]c3ccc(F)cc13)C1CCC1)CO2 [Compound 58b, Methyl (3R)-3-{cyclobutyl[4-(5-fluoro-1H-indol-3-yl)butyl]amino}-8-fluorochromane-5-carboxylate]
40 | 4.55 | 1900 | 50 | – | – | – | – | CCCCNC(=O)c1ccc(F)c2c1CC(N(CCCc1c[nH]c3ccc(F)cc13)C1CCC1)CO2 (centres unmarked) [Compound 62, N-butyl-3-{cyclobutyl[3-(5-fluoro-1H-indol-3-yl)propyl]amino}-8-fluorochromane-5-carboxamide]

Structure (SMILES) | inhibition at 1 µM (5-HT1A receptor) [%] | Ki (serotonin transporter) [nM] | IC50 [1] [nM] | Emax [1, 2] [%] | Ki (5-HT1A receptor) [nM] | 5-HT1A Function GTPγS (Imax) [1, 3] [%] | EC50 ([1]; agonist potency) [nM] | Emax ([1]; maximum stimulatory effect, in brackets after EC50, read-out: 5-HT1A Function GTPγS (Emax)) [%]
O=C(O)c1ccc(F)c2c1CC(N(CCCc1c[nH]c3ccc(F)cc13)C1CCC1)CO2 (centres unmarked) [Compound 56, 3-{cyclobutyl[3-(5-fluoro-1H-indol-3-yl)propyl]amino}-8-fluorochromane-5-carboxylic acid] | 4 | 499 | 5000 | 50 | – | – | – | –
